[1] abbreviates: 4 grams in total added to 600 milliliters of urine.
The mark [2] stands for this setting: 5 grams in total added to 600 milliliters of urine.

The structures appear in SMILES notation. Read-outs that look alike come from different tables or passages of the source.

Description: Accordingly, various compositions were tested to determine their effect on the pH when added to 600 milliliters of urine.

For the compound `O=C(O)C(O)C(O)C(=O)O` (centres unmarked) [Pure tartaric acid in granular form, tartaric acid], the “Resulting pH” value by setting is: under setting [1], 3.4; under setting [2], 3.3.
Consider `O=C(O)CC(O)(CC(=O)O)C(=O)O` [Pure citric acid in granular form, citric acid], for which the “Resulting pH” value by setting is: under setting [1], 3.8; under setting [2], 3.7.
For `O=C(O)CCC(=O)O` [Pure succinic acid in granular form, succinic acid], the “Resulting pH” value under setting [2] amounted to 4.2.
